Counter-ions that a name gives are not always drawn. Like-named read-outs stand apart in the source and are kept apart here.
Legend:
in vivo [1] = details: mouse
G-2 cells = details: human, g-2 cells
[2] = test system: Influenza A/Swine/1976/31; test: microbe, parasite or virus in culture; format: cell-based; details: in Sus scrofa
in vitro = details: human, g-2 cells
Influenza B/MASS/66 = test: In vitro anti-myxovirus assay, inhibition of hemadsorption, Influenza B/MASS/66 in G-2 cells; format: cell-based; details: Influenza B virus, 56 TCID50
Method: In preparing the compounds for testing, they were handled aseptically throughout. The compounds were dissolved in a minimum amount of a suitable solvent and the final dilutions were made up to the required volume in a complete culture medium used in assay and in concentration not exceeding the predetermined maximum non-toxic levels.
The antiviral assays were done in tissue cultures infected with an appropriate dose of an influenza virus.
The cell culture used in all in vitro anti-myxovirus assays was an established cell line of the human conjunctiva (G-2 cells). The cytotoxic studies of each of the compounds were performed prior to testing for antiviral activity to determine level of response of the cells to the potentially toxic action of the compounds.
For the antiviral assays the cells were grown in triplicates per dilution of compound in test tubes in a suitable medium. Immediately before use the initial medium was replaced with the one containing the test compound in an appropriate concentration. After virus was added at approximately 10 and 100 TCID50 dose levels the infected culture was incubated at 32° C. for a number of days. The medium was then drained, red blood cells added and after washing, the extent of hemadsorption evaluated. The percentage of inhibition of adsorption (a measure of antiviral activity) was then calculated. In all anti-myxovirus testing in vitro, as well as in vivo, amantadine (a known antiviral agent) was used as a reference standard.

mice [3] = test: Subacute toxicity in mice; details: for Subacute LD0 (non-lethal dose): once a day, seventeenth day of treatment
[4] = Subacute toxicity in mice; details: mouse, in vivo
in vivo [5] = details: mouse; remark: listed apart in the source
mice [6] = test: Acute toxicity in mice; details: after 24 hours
Acute toxicity in mice = details: mouse, in vivo
Influenza A2 /MTL/68 = test: In vitro anti-myxovirus assay, inhibition of hemadsorption, Influenza A2/MTL/68 in G-2 cells; format: cell-based, Influenza A2 /Montreal/68; details: for inhibition at 5 µg/mL: 5 ug/ml; for inhibition at 10 µg/mL: 10 ug/ml; for inhibition at 25 µg/mL: 25 ug/ml; for inhibition at 33 µg/mL: 33 ug/ml; for inhibition at 50 µg/mL: 50 ug/ml
[7] = test system: influenza virus A2 /Aichi/2/68; format: in vivo, mice (Charles River, random bred white, female); details: for Mean Survival Time / Survival % / Survival N (surviving animals / total infected) / Mean Survival Time Increase: 16 days; for Mean Survival Time Increase: vs virus only
[8] = U.S. Pat. Nos. 3,932,512 and 4,046,811; cited from earlier work
[9] = Exp. 2, virus dose 2.0 LD50, 300 mg/kg/day IP
[10] = Exp. 3, virus dose 2.6 LD50, 200 mg/kg/day IP
[11] = Exp. 4, virus dose 3.0 LD50, 200 mg/kg/day IP

## CN(C)C[C@H]1[C@@H](N)[C@@H]2C[C@H]1c1ccccc12 (relative stereo) [Compound B, endo-3-dimethylaminomethyl-endo-2-amino-1,2,3,4-tetrahydro-1,4-methanonaphthalene dihydrochloride]
In vivo [1]; ip
  NOAEL at 408 h: 400 mg/kg/day
In vivo [1]; po
  NOAEL at 408 h: 750 mg/kg/day
G-2 cells
  Cytotoxicity CTD50: > 100 µg/mL
[2]; 316 TCID50, 5 ug/ml
  inhibition at 5 µg/mL: 0%
[2]; 316 TCID50, 10 ug/ml
  inhibition at 10 µg/mL: 70%
[2]; 316 TCID50, 25 ug/ml
  inhibition at 25 µg/mL: 92%
[2]; 316 TCID50, 33 ug/ml
  inhibition at 33 µg/mL: 100%
In vitro; Cytotoxicity CTD0, maximal non-toxic concentration
  MNTC: 50 µg/mL
In vitro; Cytotoxicity CTD50
  CC50: 100 µg/mL
Influenza B/MASS/66; 10 ug/ml
  inhibition at 10 µg/mL: 0%
Influenza B/MASS/66; 25 ug/ml
  inhibition at 25 µg/mL: 17%
Influenza B/MASS/66; 33 ug/ml
  inhibition at 33 µg/mL: 43%
Influenza B/MASS/66; 50 ug/ml
  inhibition at 50 µg/mL: 73%
Mice [3]; IP
  Subacute LD0 (non-lethal dose): 450 mg/kg/day
Mice [3]; PO
  Subacute LD0 (non-lethal dose): > 750 mg/kg/day
Mice [3]; PO, subacute, at TD0 750
  clinical sign of toxicity (weight): Slight loss of weight
[4]; ip
  LD50 at 408 h: 500 mg/kg
[4]; po
  LD50 at 408 h: > 750 mg/kg
In vivo [5]; ip
  NOAEL at 24 h: > 750 mg/kg/day
In vivo [5]; po
  NOAEL at 24 h: > 750 mg/kg/day
Mice [6]; IP
  Acute LD0 (non-lethal dose): 450 mg/kg/day
Mice [6]; PO
  Acute LD0 (non-lethal dose): > 750 mg/kg/day
Acute toxicity in mice; ip
  LD50 at 24 h: 550 mg/kg
Acute toxicity in mice; po
  LD50 at 24 h: > 750 mg/kg
Influenza A2 /MTL/68; 32 TCID50
  inhibition at 5 µg/mL: 0%
  inhibition at 10 µg/mL: 30%
  inhibition at 25 µg/mL: 78%
  inhibition at 33 µg/mL: 93%
  inhibition at 50 µg/mL: 93%
Influenza A2 /MTL/68; 316 TCID50
  inhibition at 5 µg/mL: 0%
  inhibition at 10 µg/mL: 0%
  inhibition at 25 µg/mL: 70%
  inhibition at 33 µg/mL: 76%
  inhibition at 50 µg/mL: 83%
[7]; [9]
  Mean Survival Time: 14.5 days
  Survival %: 70%
  Survival N (surviving animals / total infected): 14/20
  Mean Survival Time Increase: +2.1 Days
[7]; [10]
  Mean Survival Time: 13.2 days
  Survival %: 40%
  Survival N (surviving animals / total infected): 8/20
  Mean Survival Time Increase: +2.1 Days
[7]; [11]
  Mean Survival Time: 13.5 days
  Survival %: 45%
  Survival N (surviving animals / total infected): 9/20
  Mean Survival Time Increase: +2.2 Days
[7]; administered intraperitoneally, […]
  antiviral effect against influenza virus infection: significant antiviral effect

## N[C@@H]1C[C@H]2C[C@@H]1c1ccccc12 (relative stereo) [1,2,3,4-tetrahydro-1,4-methanonaphthalen-endo-2-amine]
[8]
  antiviral activity: exhibited antiviral activity

## N[C@H]1C[C@H]2C[C@@H]1c1ccccc12 (relative stereo) [isomer with the amino substituent taking up the exo configuration]
[8]
  antiviral activity: showed no antiviral activity

From US4362746A (priority 1981, dated 1982)
